From US6087363A, “Use of imidazole and indole compounds as inhibitors of nitric oxide synthase” (Harbor Branch Oceanographic Institution, Inc., priority 1999, dated 2000)

Assays:
[1] = molecular target: T1, iNOS (murine macrophage RAW 264.7 cells) (Mus musculus, UniProt P29477); assay: inhibition of whole cell iNOS activity in LPS/IFN-γ stimulated RAW 264.7 cells (nitrites, Griess reaction); type: cell-based; conditions: RAW264.7, 24 hours, average of 4 wells, read-out: iNOS Inhibition, % Inhibit
T1 construct: host or cells: RAW 264.7
Experimental: Resultant nitrites in the TCM were measured by the Griess reaction and compared to stimulated cells incubated in the absence of test compound (0% inhibition) and unstimulated cells (100% inhibition). Each point represents the average inhibition of 4 wells±standard deviation.
Inhibition of whole cell iNOS activity by hamacanthin-A, dragmacidin and dragmacidin-D was tested to determine the specificity of the NOS inhibitory actions of these compounds.
RAW 264.7 cells were obtained from the American Type Culture Collection (Rockville, Md.) and maintained in tissue culture medium (TCM) (RPMI 1640 medium containing 100 U/ml penicillin, 100 μg/ml streptomycin, 60 μg/ml L-glutamine, 18 mM HEPES, 0.05 mg/ml gentamicin; Life Technologies, Gaithersburg, Md.) and supplemented with 10% rehatuin fetal bovine serum (Intergen Co., Purchase, N.Y.). Cells were subcultured at 3-4 day intervals, and used within 20 passages from the initial stock culture.
Test compounds were diluted in ethanol, aliquoted into appropriate wells of a 96 well microtiter plate and allowed to air dry for 1 hour at room temperature. RAW 264.7 cells were then subcultured into each well at a density of 5×10^4 cells/well in 200 μl of TCM containing lipopolysaccharide (1 ng/ml; Sigma) and interferon-γ (2 units/ml; PharMingen, San Diego, Calif.). Plates were incubated at 37° C., 5% CO2 for 24 hours. 150 μl of the TCM from each well was transferred to a second microtiter plate, 100 μl Griess reagent added to this TCM and the color intensity determined as above. Viability of the cells was determined by the methods of Mossman (Mossman, T. [1983] J. Immunol. Methods 65:55-63). Briefly, 150 μl of TCM containing 3-[4,5-dimethylthiazol-2-yl]-2,5-diphenyltetrazolium bromide (MTT, 2.5 mg/ml; Sigma) was added to each well containing the RAW 264.7 cells and incubated at 37° C., 5% CO2 for 3 hours. The medium was removed from all wells and replaced with 200 μl of acidified isopropyl alcohol (0.2% HCl). The plates were shaken for 15 minutes and the presence of the blue formazan was detected using a Spectra II spectrophotometer set at 570 nm and with a 650 nm reference filter.

[2] = molecular target: calcineurin (Homo sapiens, UniProt Q08209); assay: inhibition of calcineurin activity (PNPP dephosphorylation); type: biochemical; conditions: for inhibition of calcineurin activity: at concentrations below 50 μM; for IC50: PNPP substrate, 30° C., 1 hour; for potency on calcineurin compared with bNOS: comparison of IC50 for calcineurin and bNOS
Experimental: Inhibition of calcineurin, a calmodulin-dependent enzyme (Klee, C. B., H. Ren, X. Wang [1998] J. Biol. Chem. 273:13367-13370), by marine-derived imidazoles and indoles was tested as an indirect means of assessing the effect of these compounds on calmodulin. […] Neither hamacanthin-A nor dragmacidin were able to inhibit calcineurin activity by more than 33% at concentrations below 50 μM.
Calcineurin activity was measured by the colorimetric method based on the dephosphorylation of p-nitrophenyl phosphate (PNPP) (Greenberg, S. S., J. Xie, J. J. Spitzer, J. F. Wang, J. Lancaster, M. B. Grisham, D. R. Powers, T. D. Giles [1995] Life Sci. 57:1949-1961) in a buffer of 0.5 mM MnCl2, 1 mM dithiothreitol, 50 mM tris base (pH 7.5), 0.05 mM CaCl2, and 10 μg/ml calmodulin (Sigma). Briefly, marine-derived compounds in ethanol were transferred to 96-well plates, air dried and resuspended in the working buffer. Calcineurin was added to a final concentration of 2.75 μg protein/ml and the enzyme allowed to equilibrate at 30° C. for 10 minutes prior to the addition of substrate. PNPP was added (final concentration≈50 mM) and the reaction mixture incubated at 30° C. for 1 hour. The optical density was measured at 405 nm in a Spectra II spectrophotometer.

[3] = test system: rat cerebral bNOS; assay: inhibition of bNOS activity (nitrite production, Griess reaction); type: biochemical; conditions: for bNOS Inhibition, % Inhib: 15 min, average of 4 wells; for IC50: approximately, FIG. 1; for specificity/selectivity of bNOS inhibition: at the concentrations tested, conclusion in words
Experimental: Rat cerebral bNOS in working buffer was incubated with L-arginine and the nitrites produced after 15 minutes were measured using the Griess reaction. Results are presented as the % inhibition of bNOS activity as compared to a negative control (0% inhibition) and positive control (100% inhibition). Each point represents the average inhibition ± standard deviation of 4 wells.
Marine-derived imidazole and indole containing compounds were tested for their ability to inhibit rat cerebral NOS at a concentration range of 1.0 to 50 μM.
Evaluation of activity of bNOS was performed by measuring nitrite production using the Griess reaction (Greenberg, S. S., J. Xie, J. J. Spitzer, J. F. Wang, J. Lancaster, M. B. Grisham, D. R. Powers, T. D. Giles [1995] Life Sci. 57:1949-1961) following an incubation of purified bNOS with L-arginine according to the methods of Ohshima et al. (Ohshima, H., S. Oguchi, H. Adachi, S. Iida, H. Suzuki, T. Sugimura, H. Esumi [1992] Biochem. Biophys. Res. Comm. 183:238-244). All reactions were carried out in 96 well microtiter plates. Briefly, imidazole and indole compounds were tested in reaction buffer (80 mM HEPES, pH 7.3; 1.0 mM EDTA; 1.5 mM CaCl2) containing calmodulin (330 units/ml; Sigma Chemical Co.), dithiothreitol (1.3 mM), tetrahydrobiopterin (66 μM; Sigma), flavin adenine dinucleotide (16 μM; Sigma), and bovine brain nitric oxide synthase (1.67 units/ml; Sigma). The solutions were mixed and equilibrated at 37° C. for 2 minutes prior to the addition of L-arginine (113 μM; Sigma) and NADPH (200 μM; Sigma). Final reaction volume was 150 μl per well. The enzymatic reaction occurred at 37° C. for 15 minutes and nitrite formation detected by the addition of 100 μl of Greiss's reagent (1% sulfanilamide, 0.15% n-1-(naphthyl)-ethylenediamine dihydrochloride, 2.5% phosphoric acid; Sigma) and the color intensity determined by spectrophotometric absorbance at 540 nm (Spectra II; Tecan US Inc., Durham, N.C.).

Row | Structure (SMILES) | inhibition at 2.5 µM [1] [%] | inhibition at 5 µM [1] [%] | inhibition at 10 µM [1] [%] | inhibition at 25 µM [1] [%] | inhibition at 50 µM [1] [%] | inhibition of calcineurin activity [2] [%] | bNOS Inhibition, % Inhib ([3]; 1 μM) [%] | bNOS Inhibition, % Inhib ([3]; 5 μM) [%] | bNOS Inhibition, % Inhib ([3]; 10 μM) [%] | bNOS Inhibition, % Inhib ([3]; 50 μM) [%] | IC50 [3] [µM] | specificity/selectivity of bNOS inhibition [3] | IC50 [2] [µM] | potency on calcineurin compared with bNOS [2] | inhibitory effects on the production of NO (bNOS) ([3]; 1.0 to 50 μM)
1 | CN1C[C@H](c2c[nH]c3c(Br)c(Br)cc(O)c23)NC[C@H]1c1c[nH]c2cc(Br)ccc12 (relative stereo) [Dragmacidin, dragmacidin] | -3.94 | -8.44 | -6.23 | 3.16 | 15.8 | ≤ 33 | 38.94 | 3.54 | 32.74 | 90.27 | ~20 | able to specifically block the activity of bNOS |  |  | 
2 | CC(c1cnc(N)[nH]1)c1ccc(O)c2[nH]cc(-c3cnc(-c4c[nH]c5cc(Br)ccc45)c(=O)[nH]3)c12 (stereo not drawn) [Dragmacidin-D, dragmacidin-D] | -3.55 | -3.42 | -0.61 | 2.34 | 26.9 |  | 16.89 | 74.22 | 96.44 | 99.56 | ~4 | able to specifically block the activity of bNOS | 10 | a more potent inhibitor of bNOS | 
3 | O=C1NC(c2c[nH]c3cc(Br)ccc23)CN=C1c1c[nH]c2cc(Br)ccc12 (stereo not drawn) [Hamacanthin-A, hamacanthin-A] | 2.6 | -0.61 | 0.69 | 0.65 | 5.54 | ≤ 33 | 35.42 | 43.33 | 75.42 | 99.58 | ~7.5 | able to specifically block the activity of bNOS |  |  | 
4 | Brc1ccc2c(-c3c[nH]c(-c4c[nH]c5ccccc45)n3)c[nH]c2c1 [Nortopsentin-C, nortopsentin-C] |  |  |  |  |  |  | 20.16 | 9.88 | 16.05 | 98.77 | ~27 | not able to selectively inhibit rat cerebral bNOS | 11.4 | a concentration lower than its IC50 for bNOS | 
5 | O=C(c1nc(-c2c[nH]c3ccccc23)c[nH]1)c1c[nH]c2cc(O)ccc12 [Topsentin, topsentin] |  |  |  |  |  |  | 5.08 | 5.47 | -0.39 | 22.66 |  | not able to selectively inhibit rat cerebral bNOS |  |  | minimal inhibitory effects
